Assay type in all cases: binding
The target in assay [1] is T1, HeLa cell extract proteins (Homo sapiens, UniProt P00441).
T1 construct: endogenous in cells; host or cells: HeLa cell extract

Assay [2] addresses T2, HeLa cell extract proteins (Homo sapiens, UniProt P00558).
T2 construct: endogenous in cells; host or cells: HeLa cell extract
T2 sequence (P00558 1-417): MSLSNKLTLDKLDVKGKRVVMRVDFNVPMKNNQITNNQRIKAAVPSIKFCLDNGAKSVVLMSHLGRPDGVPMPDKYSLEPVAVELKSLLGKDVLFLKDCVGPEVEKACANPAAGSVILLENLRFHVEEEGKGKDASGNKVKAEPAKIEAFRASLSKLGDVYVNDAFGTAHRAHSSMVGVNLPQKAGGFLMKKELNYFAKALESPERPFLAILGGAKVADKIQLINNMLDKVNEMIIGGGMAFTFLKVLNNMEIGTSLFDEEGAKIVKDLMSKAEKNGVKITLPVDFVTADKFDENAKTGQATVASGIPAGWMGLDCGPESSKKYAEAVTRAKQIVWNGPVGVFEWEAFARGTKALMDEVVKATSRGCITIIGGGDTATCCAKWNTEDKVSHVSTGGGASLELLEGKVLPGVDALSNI

Assay [3] deals with T3, HeLa cell extract proteins (Homo sapiens, UniProt P08237).
T3 construct: endogenous in cells; host or cells: HeLa cell extract
T3 sequence (P08237 1-780): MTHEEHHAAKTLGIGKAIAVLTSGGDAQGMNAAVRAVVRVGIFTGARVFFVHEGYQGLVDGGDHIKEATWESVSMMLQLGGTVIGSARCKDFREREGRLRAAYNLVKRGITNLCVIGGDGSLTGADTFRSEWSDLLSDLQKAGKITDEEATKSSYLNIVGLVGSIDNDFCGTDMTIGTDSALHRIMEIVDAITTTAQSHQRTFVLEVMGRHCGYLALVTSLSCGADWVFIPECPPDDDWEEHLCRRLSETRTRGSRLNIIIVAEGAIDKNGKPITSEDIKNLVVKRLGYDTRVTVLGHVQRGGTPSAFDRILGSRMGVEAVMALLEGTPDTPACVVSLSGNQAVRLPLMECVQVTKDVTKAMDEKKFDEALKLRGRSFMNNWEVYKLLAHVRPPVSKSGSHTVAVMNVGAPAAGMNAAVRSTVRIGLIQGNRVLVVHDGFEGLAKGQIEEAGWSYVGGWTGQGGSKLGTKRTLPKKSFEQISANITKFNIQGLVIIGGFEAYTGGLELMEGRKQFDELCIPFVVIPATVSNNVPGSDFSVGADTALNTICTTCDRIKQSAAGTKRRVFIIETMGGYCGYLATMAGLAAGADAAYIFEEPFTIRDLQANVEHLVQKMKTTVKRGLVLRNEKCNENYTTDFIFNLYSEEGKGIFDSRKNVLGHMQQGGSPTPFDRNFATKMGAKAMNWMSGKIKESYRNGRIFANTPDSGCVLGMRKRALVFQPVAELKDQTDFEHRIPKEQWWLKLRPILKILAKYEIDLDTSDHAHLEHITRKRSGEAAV

In assay [4] the target is T4, HeLa cell extract proteins (Homo sapiens, UniProt P08865).
T4 construct: endogenous in cells; host or cells: HeLa cell extract

Assay [5] deals with T5, HeLa cell extract proteins (Homo sapiens, UniProt P28070).
T5 construct: endogenous in cells; host or cells: HeLa cell extract

Assay [6] deals with T6, HeLa cell extract proteins (Homo sapiens, UniProt P57678).
T6 construct: endogenous in cells; host or cells: HeLa cell extract
T6 sequence (P57678 1-1058): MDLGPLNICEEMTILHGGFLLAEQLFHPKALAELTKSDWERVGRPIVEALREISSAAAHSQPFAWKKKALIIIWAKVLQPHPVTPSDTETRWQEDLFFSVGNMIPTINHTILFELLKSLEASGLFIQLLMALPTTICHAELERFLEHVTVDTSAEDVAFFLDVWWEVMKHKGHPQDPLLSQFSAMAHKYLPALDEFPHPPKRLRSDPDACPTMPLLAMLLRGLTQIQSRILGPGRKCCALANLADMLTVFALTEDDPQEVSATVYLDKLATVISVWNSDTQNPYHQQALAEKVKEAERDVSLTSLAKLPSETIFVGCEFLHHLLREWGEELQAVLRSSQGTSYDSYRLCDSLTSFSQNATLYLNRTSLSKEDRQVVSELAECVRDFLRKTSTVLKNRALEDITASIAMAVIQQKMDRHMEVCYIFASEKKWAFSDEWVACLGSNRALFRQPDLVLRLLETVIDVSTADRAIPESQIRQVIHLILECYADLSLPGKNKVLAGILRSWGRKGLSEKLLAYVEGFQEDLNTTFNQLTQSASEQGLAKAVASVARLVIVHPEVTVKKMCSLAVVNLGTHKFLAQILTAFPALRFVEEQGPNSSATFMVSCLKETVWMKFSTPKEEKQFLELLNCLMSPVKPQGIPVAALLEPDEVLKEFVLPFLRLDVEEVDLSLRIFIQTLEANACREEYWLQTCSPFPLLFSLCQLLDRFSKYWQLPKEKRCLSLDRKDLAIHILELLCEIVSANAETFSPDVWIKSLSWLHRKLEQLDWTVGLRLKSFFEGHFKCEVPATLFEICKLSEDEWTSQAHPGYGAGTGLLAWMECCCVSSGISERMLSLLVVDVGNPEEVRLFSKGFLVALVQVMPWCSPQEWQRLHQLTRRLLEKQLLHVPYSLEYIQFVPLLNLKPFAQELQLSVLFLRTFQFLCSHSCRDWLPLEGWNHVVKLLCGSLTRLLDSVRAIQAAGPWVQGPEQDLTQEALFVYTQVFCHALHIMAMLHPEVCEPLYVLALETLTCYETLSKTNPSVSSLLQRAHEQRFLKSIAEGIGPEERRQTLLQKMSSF

The target of assay [7] is T7, HeLa cell extract proteins (Homo sapiens, UniProt Q7L1Q6).
T7 construct: endogenous in cells; host or cells: HeLa cell extract
T7 sequence (Q7L1Q6 1-419): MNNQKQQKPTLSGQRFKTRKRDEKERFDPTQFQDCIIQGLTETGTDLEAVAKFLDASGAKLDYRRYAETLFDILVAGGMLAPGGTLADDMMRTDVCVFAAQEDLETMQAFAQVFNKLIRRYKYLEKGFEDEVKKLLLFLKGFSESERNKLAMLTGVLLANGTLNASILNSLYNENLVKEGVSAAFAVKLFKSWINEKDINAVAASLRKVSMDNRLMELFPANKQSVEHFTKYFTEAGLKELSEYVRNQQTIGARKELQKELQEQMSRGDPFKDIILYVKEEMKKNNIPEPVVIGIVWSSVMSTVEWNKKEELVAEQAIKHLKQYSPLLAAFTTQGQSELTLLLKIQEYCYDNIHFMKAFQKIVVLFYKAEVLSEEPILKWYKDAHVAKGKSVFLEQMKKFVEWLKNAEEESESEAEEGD

[8] abbreviates: HeLa, protein PGK1 (PHOSPHOGLYCERATE KINASE 1.).

Like-named read-outs stand apart in the source and are kept apart here.

T1 sequence (P00441 whole entry): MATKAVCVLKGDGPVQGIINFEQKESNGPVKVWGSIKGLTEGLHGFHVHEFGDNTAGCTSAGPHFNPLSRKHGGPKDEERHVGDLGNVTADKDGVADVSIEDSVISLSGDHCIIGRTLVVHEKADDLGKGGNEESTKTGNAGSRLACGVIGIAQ
T5 sequence (P28070 46-264): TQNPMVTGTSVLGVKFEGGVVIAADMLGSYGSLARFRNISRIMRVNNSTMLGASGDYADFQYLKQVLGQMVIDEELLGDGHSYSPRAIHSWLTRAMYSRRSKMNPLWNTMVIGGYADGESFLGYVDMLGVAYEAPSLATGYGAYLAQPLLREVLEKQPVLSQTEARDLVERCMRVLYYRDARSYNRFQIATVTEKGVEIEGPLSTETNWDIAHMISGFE

With `CCCCCCOc1cccc(Cc2cnc(N)nc2N)c1` [compound 2], the “fold changes relative to vehicle control” value in assay [1] (protein SOD1, HeLa) came to 2.11; in assay [2] (setting [8]), 2.59 fold; in assay [3] (captured protein PFKM, HeLa) it was 1.2; in assay [4] (captured protein RPSA, HeLa), 1.11; in assay [5] (protein PSMB4, HeLa) it was 1.21; in assay [6] (captured protein GEMIN4, HeLa) it was 0.92. For the same compound, the “fold changes relative to vehicle control” value in assay [7] (protein BZW1, HeLa) was 1.52.
As for `NCCOCCOCC(=O)Nc1nc2ncc(CNc3ccc(C(=O)NC(CCC(=O)O)C(=O)O)cc3)nc2c(=O)[nH]1` (stereo not shown) [compound 6], the “fold changes relative to vehicle control” value in assay [1] (HeLa, protein SOD1) was found to be 1.44; in assay [2] (HeLa, protein PGK1) it was 1.28; in assay [3] (HeLa, captured protein PFKM) it was 1.02; in assay [4] (HeLa, protein RPSA), 0.97; in assay [5] (HeLa, protein PSMB4), 1.04; in assay [6] (HeLa, protein GEMIN4) it was 1.02. Also, in assay [7] (HeLa, protein BZW1), the “fold changes relative to vehicle control” value came out at 1.21.
With `CCCCCCOc1ccc(Cc2cnc(N)nc2N)cc1` [compound 1], the “fold changes relative to vehicle control” value in assay [1] (protein SOD1, HeLa) is reported as 1.47; in assay [2] (setting [8]), 1.5 fold; in assay [3] (captured protein PFKM, HeLa), 1.15; in assay [4] (captured protein RPSA, HeLa), 0.97; in assay [5] (protein PSMB4, HeLa) it was 1.12; in assay [6] (captured protein GEMIN4, HeLa), 0.88. In addition, the “fold changes relative to vehicle control” value in assay [7] (protein BZW1, HeLa) came to 1.09.
Regarding `Nc1nc2c(c(=O)[nH]1)N(C=O)C(CNc1ccc(C(=O)N[C@@H](CCC(=O)O)C(=O)O)cc1)CN2` (stereo partly shown) [LEU, leucovorin], the “fold changes relative to vehicle control” value in assay [1] (HeLa, protein SOD1) worked out at 1.01; in assay [2] (HeLa, protein PGK1), 1.1; in assay [3] (HeLa, captured protein PFKM) it was 1.01; in assay [4] (HeLa, protein RPSA), 0.87; in assay [5] (HeLa, protein PSMB4) it was 0.98; in assay [6] (HeLa, protein GEMIN4), 0.93. For the same compound, the “fold changes relative to vehicle control” value in assay [7] (HeLa, protein BZW1) was 1.01.
Take `NCCCNc1ccc(C(=O)NC(CCC(=O)O)C(=O)O)cc1` (stereo not shown) [compound 7]: the “fold changes relative to vehicle control” value in assay [1] (HeLa, protein SOD1) is 1.08; in assay [2] (HeLa, protein PGK1) it was 0.92; in assay [3] (HeLa, captured protein PFKM), 1.02; in assay [4] (HeLa, protein RPSA) it was 0.84; in assay [5] (HeLa, protein PSMB4), 0.95; in assay [6] (HeLa, protein GEMIN4), 0.99. Further, in assay [7] (HeLa, protein BZW1), the “fold changes relative to vehicle control” value is reported as 0.98.
On to `Nc1nc2[nH]cc(CCc3ccc(C(=O)N[C@@H](CCC(=O)O)C(=O)O)cc3)c2c(=O)[nH]1` [PTX, pemetrexed], for which the “fold changes relative to vehicle control” value in assay [1] is given as 1.22; in assay [2], 1.11; in assay [3], 0.98; in assay [4], 0.9; in assay [5], 0.97; in assay [6] it was 0.94. Besides, in assay [7], the “fold changes relative to vehicle control” value is listed as 1.09.
Regarding `Nc1nc2cccc(-c3ccccc3)c2n1Cc1ccc(Cl)c(Cl)c1` [compound 3], the “fold changes relative to vehicle control” value is on record as 0.8 in assay [1] (protein SOD1, HeLa); 0.8 fold in assay [2] (HeLa, protein PGK1 (PHOSPH[…] 1.)); 1.01 in assay [3] (captured protein PFKM, HeLa); 1.09 in assay [4] (captured protein RPSA, HeLa); 1.05 in assay [5] (protein PSMB4, HeLa); 1.02 in assay [6] (captured protein GEMIN4, HeLa). Moreover, in assay [7] (protein BZW1, HeLa), the “fold changes relative to vehicle control” value amounted to 0.91.
